Laboratory results taken from ChEMBL document CHEMBL3297661, “1-Substituted-5-[(3,5-dinitrobenzyl)sulfanyl]-1H-tetrazoles and their isosteric analogs: A new class of selective antitubercular agents active against drug-susceptible and multidrug-resistant mycobacteria” (Eur J Med Chem, 2014).
Converted amounts (≈) assume the structure as drawn.

Columns and labels:
[1] = system: Mycobacterium tuberculosis; test: Antimycobacterial activity against Mycobacterium tuberculosis CNCTC My 331/88 after 14 days by micromethod; format: functional; details: CNCTC My 331/88, 336 h
[2] = system: Mycobacterium tuberculosis; test: Antimycobacterial activity against Mycobacterium tuberculosis CNCTC My 331/88 after 21 days by micromethod; format: functional; details: CNCTC My 331/88, 504 h
Mycobacterium avium [3] = test: Antimycobacterial activity against Mycobacterium avium CNCTC My 330/88 after 14 days by micromethod; format: functional; details: CNCTC My 330/88, 336 h
Mycobacterium avium [4] = test: Antimycobacterial activity against Mycobacterium avium CNCTC My 330/88 after 21 days by micromethod; format: functional; details: CNCTC My 330/88, 504 h
Mycobacterium kansasii [5] = test: Antimycobacterial activity against Mycobacterium kansasii CNCTC My 235/80 after 7 days by micromethod; format: functional; details: CNCTC My 235/80, 168 h
Mycobacterium kansasii [6] = test: Antimycobacterial activity against Mycobacterium kansasii CNCTC My 235/80 after 14 days by micromethod; format: functional; details: CNCTC My 235/80, 336 h
Mycobacterium kansasii [7] = test: Antimycobacterial activity against Mycobacterium kansasii CNCTC My 235/80 after 21 days by micromethod; format: functional; details: CNCTC My 235/80, 504 h
Mycobacterium kansasii [8] = test: Antimycobacterial activity against Mycobacterium kansasii 6509/96 after 7 days by micromethod; format: functional; details: 6509/96, 168 h
Mycobacterium kansasii [9] = test: Antimycobacterial activity against Mycobacterium kansasii 6509/96 after 14 days by micromethod; format: functional; details: 6509/96, 336 h
Mycobacterium kansasii [10] = test: Antimycobacterial activity against Mycobacterium kansasii 6509/96 after 21 days by micromethod; format: functional; details: 6509/96, 504 h
[11] = Cytotoxicity against human HeLa cells assessed as cell viability at 30 uM after 48 hrs by MTT assay; format: cell-based; details: read-out: Activity
[12] = Cytotoxicity against human HuH7 cells assessed as cell viability at 30 uM after 48 hrs by MTT assay; format: cell-based, Huh-7; details: read-out: Activity
[13] = Cytotoxicity against human HepG2 cells assessed as cell viability at 30 uM after 48 hrs by MTT assay; format: cell-based; details: read-out: Activity
[14] = Cytotoxicity against MDCK2 cells assessed as cell viability at 30 uM after 48 hrs by MTT assay; format: cell-based, Canis lupus familiaris, MDCK-II; details: dog, read-out: Activity
HeLa = test: Cytotoxicity against human HeLa cells assessed as reduction in cell viability after 48 hrs by MTT assay; format: cell-based
[15] = Cytotoxicity against human HuH7 cells assessed as reduction in cell viability after 48 hrs by MTT assay; format: cell-based; details: Huh-7, 48 h
[16] = Cytotoxicity against MDCK2 cells assessed as reduction in cell viability after 48 hrs by MTT assay; format: cell-based; details: Canis lupus familiaris, MDCK-II
HepG2 = test: Cytotoxicity against human HepG2 cells assessed as reduction in cell viability after 48 hrs by MTT assay; format: cell-based; details: HepG2, 48 h

Row | Compound | MIC [1] [µM] | MIC [2] [µM] | MIC (Mycobacterium avium [3]) [µM] | MIC (Mycobacterium avium [4]) [µM] | MIC (Mycobacterium kansasii [5]) [µM] | MIC (Mycobacterium kansasii [6]) [µM] | MIC (Mycobacterium kansasii [7]) [µM] | MIC (Mycobacterium kansasii [8]) [µM] | MIC (Mycobacterium kansasii [9]) [µM] | MIC (Mycobacterium kansasii [10]) [µM] | viability at 48 h, 30 µM [11] [%] | viability at 48 h, 30 µM [12] [%] | viability at 48 h, 30 µM [13] [%] | viability at 48 h, 30 µM [14] [%] | IC50 (HeLa) [µM] | IC50 [15] [µM] | IC50 [16] [µM] | IC50 (HepG2) [µM]
1 | O=[N+]([O-])c1cc(CSc2nnnn2C23CC4CC(CC(C4)C2)C3)cc([N+](=O)[O-])c1 | 4 (≈ 1.67 µg/mL) | 4 (≈ 1.67 µg/mL) | 500 (≈ 208 µg/mL) | 500 (≈ 208 µg/mL) | 4 (≈ 1.67 µg/mL) | 8 (≈ 3.33 µg/mL) | 16 (≈ 6.66 µg/mL) | 8 (≈ 3.33 µg/mL) | 8 (≈ 3.33 µg/mL) | 8 (≈ 3.33 µg/mL) |  |  |  |  |  |  |  | 
2 | COc1ccc(-n2nnnc2SCc2cc(N)cc([N+](=O)[O-])c2)cc1 | 250 (≈ 89.6 µg/mL) | 250 (≈ 89.6 µg/mL) | 250 (≈ 89.6 µg/mL) | 250 (≈ 89.6 µg/mL) | 250 (≈ 89.6 µg/mL) | 250 (≈ 89.6 µg/mL) | 250 (≈ 89.6 µg/mL) | 250 (≈ 89.6 µg/mL) | 250 (≈ 89.6 µg/mL) | 250 (≈ 89.6 µg/mL) |  |  |  |  |  |  |  | 
3 | COc1ccccc1-n1nnnc1SCc1cc([N+](=O)[O-])cc([N+](=O)[O-])c1 | 125 (≈ 48.5 µg/mL) | 125 (≈ 48.5 µg/mL) | 125 (≈ 48.5 µg/mL) | 125 (≈ 48.5 µg/mL) | 125 (≈ 48.5 µg/mL) | 125 (≈ 48.5 µg/mL) | 125 (≈ 48.5 µg/mL) | 125 (≈ 48.5 µg/mL) | 125 (≈ 48.5 µg/mL) | 125 (≈ 48.5 µg/mL) |  |  |  |  |  |  |  | 
4 | COc1ccc(-n2nnnc2[Se]Cc2cc([N+](=O)[O-])cc([N+](=O)[O-])c2)cc1 | 1 (≈ 0.435 µg/mL) | 1 (≈ 0.435 µg/mL) | 32 (≈ 13.9 µg/mL) | 32 (≈ 13.9 µg/mL) | 1 (≈ 0.435 µg/mL) | 2 (≈ 0.871 µg/mL) | 2 (≈ 0.871 µg/mL) | 2 (≈ 0.871 µg/mL) | 4 (≈ 1.74 µg/mL) | 8 (≈ 3.48 µg/mL) | 78 | 72 | 17 | 9 | > 30 | > 30 | < 7.5 | 19
5 | O=[N+]([O-])c1ccc(-n2nnnc2SCc2ccccc2)cc1 | 125 (≈ 39.2 µg/mL) | 125 (≈ 39.2 µg/mL) | 62 (≈ 19.4 µg/mL) | 62 (≈ 19.4 µg/mL) | 16 (≈ 5.01 µg/mL) | 32 (≈ 10 µg/mL) | 32 (≈ 10 µg/mL) | 16 (≈ 5.01 µg/mL) | 62 (≈ 19.4 µg/mL) | 62 (≈ 19.4 µg/mL) |  |  |  |  |  |  |  | 
6 | COc1ccc(-n2nnnc2SCc2ccc([N+](=O)[O-])cc2[N+](=O)[O-])cc1 | 8 (≈ 3.11 µg/mL) | 8 (≈ 3.11 µg/mL) | 62 (≈ 24.1 µg/mL) | 62 (≈ 24.1 µg/mL) | 32 (≈ 12.4 µg/mL) | 62 (≈ 24.1 µg/mL) | 62 (≈ 24.1 µg/mL) | 8 (≈ 3.11 µg/mL) | 16 (≈ 6.21 µg/mL) | 32 (≈ 12.4 µg/mL) |  |  |  |  |  |  |  | 
7 | COC(=O)c1cccc(-n2nnnc2SCc2cc([N+](=O)[O-])cc([N+](=O)[O-])c2)c1 | 8 (≈ 3.33 µg/mL) | 16 (≈ 6.66 µg/mL) | 250 (≈ 104 µg/mL) | 250 (≈ 104 µg/mL) | 500 (≈ 208 µg/mL) | 500 (≈ 208 µg/mL) | 500 (≈ 208 µg/mL) | 500 (≈ 208 µg/mL) | 500 (≈ 208 µg/mL) | 500 (≈ 208 µg/mL) |  |  |  |  |  |  |  | 
8 | CC(=O)SCc1cc([N+](=O)[O-])cc([N+](=O)[O-])c1 | 8 (≈ 2.05 µg/mL) | 16 (≈ 4.1 µg/mL) | 62 (≈ 15.9 µg/mL) | 125 (≈ 32 µg/mL) | 16 (≈ 4.1 µg/mL) | 32 (≈ 8.2 µg/mL) | 125 (≈ 32 µg/mL) | 62 (≈ 15.9 µg/mL) | 125 (≈ 32 µg/mL) | 500 (≈ 128 µg/mL) |  |  |  |  |  |  |  | 
9 | c1ccc(C[Se]c2nnnn2C2CCCCC2)cc1 | 125 (≈ 40.2 µg/mL) | 125 (≈ 40.2 µg/mL) | 125 (≈ 40.2 µg/mL) | 125 (≈ 40.2 µg/mL) | 8 (≈ 2.57 µg/mL) | 32 (≈ 10.3 µg/mL) | 32 (≈ 10.3 µg/mL) | 62 (≈ 19.9 µg/mL) | 250 (≈ 80.3 µg/mL) | 500 (≈ 161 µg/mL) |  |  |  |  |  |  |  | 
10 | Cn1nnnc1SCc1cc([N+](=O)[O-])cc([N+](=O)[O-])c1 | 4 (≈ 1.19 µg/mL) | 8 (≈ 2.37 µg/mL) | 500 (≈ 148 µg/mL) | 1000 (≈ 296 µg/mL) | 4 (≈ 1.19 µg/mL) | 16 (≈ 4.74 µg/mL) | 32 (≈ 9.48 µg/mL) | 16 (≈ 4.74 µg/mL) | 32 (≈ 9.48 µg/mL) | 32 (≈ 9.48 µg/mL) |  |  |  |  |  |  |  | 
11 | O=[N+]([O-])c1cc(COc2nnnn2-c2ccc(Cl)cc2)cc([N+](=O)[O-])c1 | 2 (≈ 0.753 µg/mL) | 4 (≈ 1.51 µg/mL) | 32 (≈ 12.1 µg/mL) | 62 (≈ 23.4 µg/mL) | 8 (≈ 3.01 µg/mL) | 16 (≈ 6.03 µg/mL) | 32 (≈ 12.1 µg/mL) | 8 (≈ 3.01 µg/mL) | 16 (≈ 6.03 µg/mL) | 32 (≈ 12.1 µg/mL) |  |  |  |  |  |  |  | 
